Legend:
[1] = system: subjects with primary focal hyperhidrosis; experiment: Hyperhidrosis Disease Severity Scale (HDSS), crossover clinical study; type: in vivo, human; conditions: BID by mouth, 21-day treatment period; 1 point drop=50% reduction in sweating, 2 points=80% reduction
Excerpt: (§1) The clinical study was a randomized, double blind, placebo-controlled, crossover study of approximately 18 subjects. Following qualification, subjects were randomized to one of 6 groups/sequences during which they received each of the three study treatments in sequential treatment periods. Each 21-day double-blind study treatment period was preceded by an at least 7-day washout period. Subsequent study treatment assignments were via the sequential three-way crossover design prescribed in that group. After completing the final study treatment period or early study treatment discontinuation, all subjects completed an end of study visit (approximately 14 days after the last study treatment administration. FIG. 5 illustrates a scheme of the clinical study design.
Subjects were randomized to 1 of 6 groups/sequences of study treatment administration. […]
(§2) Efficacy and safety analyses were conducted on study treatment (THVD-102 [7.5/7.5], oxybutynin or placebo). […] There was a statistically significant effect in each of three measures of efficacy: • 1) Hyperhidrosis Disease Severity Scale (p=0.03-0.05) • THVD-102 [7.5/7.5]=1.06±1.11; Oxybutynin=1.33±1.03; placebo=0.5±0.62 1 point drop=50% reduction in sweating; 2 points=80% reduction • 2) Hyperhidrosis Visual Analog Scale (p=0.01) • 3) Hyperhidrosis Visual Quantification Scale (p=0.005-0.07)

[2] = system: subjects with primary focal hyperhidrosis; experiment: Dry Mouth Visual Analog Scale (DMVAS), crossover clinical study; type: in vivo, human; conditions: 100 mm scale, 100 = worst; PP; n 18
Excerpt: The clinical study was a randomized, double blind, placebo-controlled, crossover study of approximately 18 subjects. Following qualification, subjects were randomized to one of 6 groups/sequences during which they received each of the three study treatments in sequential treatment periods. Each 21-day double-blind study treatment period was preceded by an at least 7-day washout period. Subsequent study treatment assignments were via the sequential three-way crossover design prescribed in that group. […]
The DMVAS will be used to quantify the severity of dry mouth experienced by subjects during this clinical trial. […] The score was determined by measuring the distance from the left anchor to where the line that the subject drew bisected the (100 mm) scale. The distance was measured and recorded in millimeters (mm). […]
as §2

[3] = system: subjects with primary focal hyperhidrosis; experiment: Dry Mouth Questions (Dry Mouth Severity/Incidence Questionnaire), crossover clinical study; type: in vivo, human; conditions: PP, n 18
Excerpt: as §1
The active control of oxybutynin 7.5 mg is the comparator for THVD-102 [7.5/7.5] for the anti-muscarinic induced dry mouth symptom incidence and severity.
Subjects were randomized to 1 of 6 groups/sequences of study treatment administration. Each sequence included sequential crossover assignment to a 21-day treatment period of: • oxybutynin 7.5 mg BID alone by mouth; • THVD-102 [7.5/7.5] (oxybutynin 7.5 mg in combination with pilocarpine 7.5 mg) BID by mouth; and • placebo BID by mouth.
Dry Mouth Questions (Dry Mouth Severity/Incidence Questionnaire)
At the end of the end of each treatment period, investigational site staff questioned subjects regarding the incidence of dry mouth. This assessment occurred after the subject had completed the DMVAS and DTVAS and included questions relating to the incidence and severity of dry mouth symptoms and remedial actions taken. The investigator was instructed to query subjects in a non-judgmental, non-leading manner using the following script (© 2012, Thomas Tremblay and Robin Allgren) to elicit the incidence of dry mouth: • Have you had any dry mouth since starting (the most recent) study treatment? (at completion of Treatment Periods 1, 2, and 3)
as §2, with “placebo). Continuous data were summarized by using descriptive statistics (mean, SD, median, min, max) and categorical data were summarized in frequency tables. Using Day 1 of the first and each subsequent Treatment Period as baselines for measuring treatment effect, a Wilcoxon signed-rank test were performed.” for “placebo).”

[4] = Jacobs 1996; Cheshire and Fealey 2008; Salagen product insert; cited from earlier work

Row | Compound | Hyperhidrosis Disease Severity Scale [1] | Dry mouth Visual Analog Scale, Change D0-D21 [2] | Moderate/Severe dry mouth, number of subjects [3] | Moderate/Severe dry mouth, percent of subjects [3] | None/Mild dry mouth, number of subjects [3] | None/Mild dry mouth, percent of subjects [3] | effect on sweating [4]
1 | CCN(CC)CC#CCOC(=O)C(O)(c1ccccc1)C1CCCCC1 (stereo not shown) [Oxybutynin, 4-Diethylaminobut-2-ynyl 2-cyclohexyl-2-hydroxy-2-phenylethanoate] | 1.33±1.03 | 43.9 ± 27.9 mm | 13 | 72% | 5 | 27% | 
2 | CC[C@@H]1C(=O)OC[C@@H]1Cc1cncn1C [pilocarpine, (3S,4R)-3-Ethyl-4-((1-methyl-1H-imidazol-5-yl)methyl)dihydrofuran-2(3H)-one] |  |  |  |  |  |  | known to cause an increase in sweating

From US11779569B2, “Methods and compositions for treating hyperhidrosis” (THERAVIDA, INC., priority 2016, dated 2023)
